Data taken from article PMC6105827, “Antitrypanosomal 8-Hydroxy-Naphthyridines Are Chelators of Divalent Transition Metals” (Antimicrobial Agents and Chemotherapy, 2018).
Like-named read-outs stand apart in the source and are kept apart here.

Tests used:
[1] = test system: L. donovani promastigotes; test: L. donovani promastigote compound sensitivity assay (with/without metal salts)
Procedure: (§1) The clonal Leishmania donovani cell line LdBOB (derived from MHOM/SD/62/1S-CL2D) was grown as promastigotes at 28°C, as described previously ([53]). Bloodstream-form T. brucei MiTat 1.2 clone 221a and its derived subline, 2T1, were cultured at 37°C in the presence of 5% CO2 in HMI9-T medium, as described previously ([54]). The human carcinoma HepG2 cell line was grown at 37°C with 5% CO2 in minimal Eagle's medium (MEM) with GlutaMAX (1×; Sigma-Aldrich), nonessential amino acids (Sigma-Aldrich), and 10% FBS. Human HepG2 and THP-1 cells used in this study were ethically sourced from the ATCC.
(§2) L. donovani intramacrophage ([7]), HepG2 ([55]), T. brucei ([56]), and L. donovani promastigote ([57]) compound sensitivity assays were carried out as described previously. Human HepG2 and THP-1 cells used in these assays were provided by the ATCC. Data were processed by using GRAFIT (version 5.0.4; Erithacus Software) and fitted to a 2-parameter equation to obtain the effective concentration inhibiting growth by 50% (EC50). Data are presented as the means of results from at least two independent experiments.
(§3) In the first instance, the maximum tolerated concentrations of ZnCl2, CaCl2, CuCl2, MgCl2, MnCl2, and FeCl2 were determined for each cell type. […] Standard drug sensitivity assays were carried out (as described above) for each cell type with compounds 1, 2, and 3 in the presence and absence of the maximum tolerated concentration of metal salt.

[2] = test system: HepG2 cells; test: HepG2 compound sensitivity assay (with/without ZnCl2); conditions: Homo sapiens, HepG2, read-out: HepG2 EC50
Procedure: as §1, §2, §3

[3] = test system: Tb927.11.1910 knockdown bloodstream trypanosomes; test: Drug sensitivity of Tb927.11.1910 RNAi knockdown trypanosomes; format: cell-based; conditions: Trypanosoma brucei, read-out: EC50, Tb927.11.1910 knockdown
Text: Stem-loop RNAi constructs were assembled as described previously ([54], [62]). PCR primers were designed by using RNAit software ([63]). For HL2 (Tb927.11.15050), primers HL2FW and HL2RV were used to generate a 533-bp gene fragment, and for HL3 (Tb927.11.1910), primers HL3FW and HL3RV were used to generate a 513-bp gene fragment. The accuracy of all assembled constructs was verified by sequencing. Assembled constructs were linearized by using AscI prior to transfection into bloodstream T. brucei 2T1 parasites ([62]). In addition to phleomycin (1 μg ml^−1), trypanosomes maintaining successfully integrated vectors were selected using hygromycin (2.5 μg ml^−1) and confirmed to be puromycin (2 μg ml^−1) resistant. To generate C-terminal 12×Myc tagging vectors for Tb927.11.15050 (Myc1) and Tb927.11.1910 (Myc2), primers Myc1FW and Myc1RV and primers Myc2FW and Myc2RV were used to generate 924-bp and 1,095-bp fragments, respectively. Fragments were inserted into the pNATx^12xMyc construct ([54]) via HindIII and XbaI restriction sites. The accuracy of the assembled constructs was verified by sequencing, and the constructs were linearized with the restriction endonuclease MfeI prior to transfection into the above-described HL2 and HL3 trypanosomes. Trypanosomes maintaining successfully integrated vectors were selected with blasticidin (1 μg ml^−1).

## Cc1nnc(-c2nc(NCc3ccc(Cl)cc3)c3cccnc3c2O)[nH]1 [Compound 1]
[1]; Leishmania donovani, read-out: EC50 values, WT, promastigotes, absence of cation, FeCl2 experiment
  EC50: 800 ± 30 nM
[1]; Leishmania donovani, read-out: EC50 values, WT, promastigotes, absence of cation, ZnCl2 experiment
  EC50: 800 ± 10 nM
[1]; Leishmania donovani, read-out: L. donovani pro EC50, promastigotes (Fig. 1)
  EC50: 760 nM
[1]; promastigotes, FeCl2 (100 μM) vs WT
  Shift: 2.0 fold
[1]; promastigotes, ZnCl2 (100 μM) vs WT
  Shift: 11.0 fold
[1]; promastigotes, ZnCl2 (100 μM) vs WT, listed as compound 1
  Shift: 11 fold
[1]; read-out: EC50 values, WT, promastigotes, absence of cation, FeCl2 experiment
  EC50: 780 ± 30 nM
[2]
  EC50: 10.4 µM
[3]
  EC50: 600 ± 50 nM
